According to patent publication US9611269B2, “Azetidinyl phenyl, pyridyl or pyrazinyl carboxamide derivatives as JAK inhibitors” (Incyte Corporation, priority 2011, dated 2017):

Legend:
Format in all cases: biochemical
[1] = target: human JAK1 (a.a. 837-1142) catalytic domain (Homo sapiens, UniProt P23458); assay: In vitro JAK kinase assay (HTRF, 1 mM ATP), JAK1; details: at 1 mM ATP;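 also: kinase activity followed as phosphorylation of a biotin-tagged peptide, detected by HTRF with Eu-labelled anti-phosphotyrosine antibody and SA-APC, after 1 h reaction at room temperature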
Protocol: (§1) The catalytic activity of JAK1, JAK2 or JAK3 was assayed by measuring the phosphorylation of a biotinylated peptide. The phosphorylated peptide was detected by homogenous time resolved fluorescence (HTRF). […] Reactions were carried out at room temperature for 1 hour and then stopped with 20 μL 45 mM EDTA, 300 nM SA-APC, 6 nM Eu-Py20 in assay buffer (Perkin Elmer, Boston, Mass.). Binding to the Europium labeled antibody took place for 40 minutes and HTRF signal was measured on a Fusion plate reader (Perkin Elmer, Boston, Mass.).

[2] = system: human JAK1 (a.a. 837-1142) catalytic domain; assay: In vitro JAK kinase assay (HTRF, 1 mM ATP), JAK1; details: ratio of JAK2 IC50 to JAK1 IC50 at 1 mM ATP;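 also: kinase activity followed as phosphorylation of a biotin-tagged peptide, detected by HTRF with Eu-labelled anti-phosphotyrosine antibody and SA-APC, after 1 h reaction at room temperature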
Protocol: as §1

[3] = target: human JAK2 (a.a. 828-1132) catalytic domain (Homo sapiens (Human), UniProt O60674); assay: In vitro JAK kinase assay (HTRF, 1 mM ATP), JAK2; details: at 1 mM ATP
Sequence of human JAK2 (a.a. 828-1132) catalytic domain (O60674 828-1132): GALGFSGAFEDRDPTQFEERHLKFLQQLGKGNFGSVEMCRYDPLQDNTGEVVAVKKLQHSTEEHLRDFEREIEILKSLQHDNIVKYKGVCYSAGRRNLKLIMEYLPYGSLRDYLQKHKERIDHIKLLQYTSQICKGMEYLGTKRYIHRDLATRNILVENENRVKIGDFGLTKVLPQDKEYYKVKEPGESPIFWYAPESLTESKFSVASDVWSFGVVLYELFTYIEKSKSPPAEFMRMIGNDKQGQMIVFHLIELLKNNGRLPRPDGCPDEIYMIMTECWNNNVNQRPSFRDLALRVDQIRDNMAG
Protocol: as §1

Sequence of human JAK1 (a.a. 837-1142) catalytic domain (Homo sapiens, UniProt P23458) (P23458 whole entry, looked up, the tested form may be a part): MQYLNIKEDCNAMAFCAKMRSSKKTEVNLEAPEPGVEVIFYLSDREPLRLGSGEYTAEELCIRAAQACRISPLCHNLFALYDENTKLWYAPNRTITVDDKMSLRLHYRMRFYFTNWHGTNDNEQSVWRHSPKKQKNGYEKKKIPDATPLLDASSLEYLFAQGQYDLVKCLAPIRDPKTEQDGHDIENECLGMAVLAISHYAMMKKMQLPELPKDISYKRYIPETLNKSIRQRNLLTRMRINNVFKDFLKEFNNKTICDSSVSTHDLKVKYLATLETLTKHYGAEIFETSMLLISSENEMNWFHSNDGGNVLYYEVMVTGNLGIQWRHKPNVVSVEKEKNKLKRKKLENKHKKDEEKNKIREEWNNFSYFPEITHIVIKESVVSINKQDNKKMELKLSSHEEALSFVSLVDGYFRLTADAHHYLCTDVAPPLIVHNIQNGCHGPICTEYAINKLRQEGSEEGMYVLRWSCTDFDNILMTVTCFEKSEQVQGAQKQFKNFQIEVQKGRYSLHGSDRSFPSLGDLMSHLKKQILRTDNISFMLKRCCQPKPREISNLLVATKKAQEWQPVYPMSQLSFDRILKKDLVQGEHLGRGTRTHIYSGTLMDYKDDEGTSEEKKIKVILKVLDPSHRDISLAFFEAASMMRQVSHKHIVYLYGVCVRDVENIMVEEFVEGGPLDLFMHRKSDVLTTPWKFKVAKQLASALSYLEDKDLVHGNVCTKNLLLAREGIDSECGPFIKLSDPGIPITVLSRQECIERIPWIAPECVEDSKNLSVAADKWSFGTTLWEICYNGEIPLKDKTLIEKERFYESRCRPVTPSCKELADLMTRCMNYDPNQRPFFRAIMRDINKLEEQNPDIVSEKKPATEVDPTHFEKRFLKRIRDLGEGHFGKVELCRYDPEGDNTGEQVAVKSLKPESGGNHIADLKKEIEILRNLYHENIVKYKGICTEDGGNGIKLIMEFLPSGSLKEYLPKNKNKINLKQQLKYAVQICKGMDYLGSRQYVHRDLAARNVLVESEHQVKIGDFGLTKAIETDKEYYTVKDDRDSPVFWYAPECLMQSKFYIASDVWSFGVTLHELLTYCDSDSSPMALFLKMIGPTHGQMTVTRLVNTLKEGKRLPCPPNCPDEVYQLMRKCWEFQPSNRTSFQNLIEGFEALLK

| SMILES | IC50 [1] | JAK2/JAK1 [2] | IC50 [3] |
| --- | --- | --- | --- |
| C[C@H](NC(=O)c1cnc(N2CC(CC#N)(n3cc(-c4ccnc5[nH]ccc45)cn3)C2)cn1)C1CC1 [Example 41, 5-{3-(Cyanomethyl)-3-[4-(1H-pyrrolo[2,3-b]pyridin-4-yl)-1H-pyrazol-1-yl]azetidin-1-yl}-N-[(1S)-1-cyclopropylethyl]pyrazine-2-carboxamide] | < 0.01 µM | A (A means greater than or equal to 10) | 0.01 to 0.04 µM |
| N#CCC1(n2cc(-c3ccnc4[nH]ccc34)cn2)CN(c2cnc(C(=O)N[C@@H](C3CC3)C(F)(F)F)cn2)C1 [Example 42, 5-{3-(Cyanomethyl)-3-[4-(1H-pyrrolo[2,3-b]pyridin-4-yl)-1H-pyrazol-1-yl]azetidin-1-yl}-N-[(1S)-1-cyclopropyl-2,2,2-trifluoroethyl]pyrazine-2-carboxamide] | < 0.01 µM | A (A means greater than or equal to 10) | 0.01 to 0.04 µM |
